The test system of this experiment is human Vα24+/Vβ11+ iNKT cells. As to the kind of experiment: Stimulation of human Vα24+/Vβ11+ NKT cell populations in PBMC culture, flow cytometry. It is filed as cell-based. The note with it: PBMC from a normal healthy donor, 100 nM, 14 days of culture. How it is done:
Peripheral blood mononuclear cells (PBMC) from a normal healthy donor were incubated with each individual compound at a final concentration of 100 nM. After 14 days of culture, NKT cell frequencies were determined by flow cytometry. NKT cell frequencies were defined as the percentage of Vα24+/V−β11+ cells among gated lymphocytes in the upper right (UR) corner for each case. Shown here are the profiles of PBMC harvested from 14-day cultures containing (a) vehicle alone (DMSO, UN), or (b) 100 nM of α-GalCer (KS), (c) analog 18 (DABB), or (d) analog 19 (DAGBB), as indicated.
The less toxic product mixtures were further examined. These sample mixtures after simple filtration through silica gel were submitted to analysis with ESI-MS. […] Among them, 4-benzyl benzoic acid derived amide product showing the most significant signals was resynthesized in both its ceramidic form 18 and galactosyl ceramidic form 19 (Scheme 6). The subsequent validation experiment was performed by MTT assay and flowcytotmetry (FIG. 4). […] This confirmed the important role played by sugar moieties.
In general terms: In flow cytometry, cells or beads pass a laser one at a time.

Entries after “also recorded” stand apart in the source; their conditions may differ.

For the compound `CCCCCCCCCCCCCC[C@@H](O)[C@@H](O)[C@H](CO[C@H]1O[C@H](CNC(=O)c2ccc(CCCC)cc2)[C@H](O)[C@H](O)[C@H]1O)NC(=O)c1ccc(CCCC)cc1` [analog 19, 4-butyl-N-(((2R,3R,4S,5R,6S)-6-(((2S,3S,4R)-2-(4-butylbenzamido)-3,4-dihydroxyoctadecyl)oxy)-3,4,5-trihydroxytetrahydro-2H-pyran-2-yl)methyl)benzamide], the “stimulation of Vα24+/Vβ11+ iNKT cell population” value is listed as “stimulats human iNKT cell population; also recorded: stimulative”.

Source of the values: patent US20130217639A1, “COMPOUND FOR ACTIVATING NATURAL KILLER T CELLS AND PREPARING METHOD THEREOF” (NATIONAL TSING HUA UNIVERSITY, priority 2012, published 2013).
